# Data taken from patent US20050153894A1, “p21 peptides” (Cyclacel Limited, priority 1999, published 2005).
# Square brackets hold non-standard residues; d marks the D form. Phe(4-F) = N[C@@H](Cc1ccc(F)cc1)C(=O)O; Cit = NC(=O)NCCC[C@H](N)C(=O)O; dPsa = O-acetyl-D-phenylserine; Psa = O-acetylphenylserine; Abu = CC[C@H](N)C(=O)O
# Assays:
# Assay type in all cases: biochemical
# [1] = biological target: T1, CDK4/Cyclin D1 (Homo sapiens, UniProt P24385); experiment: CDK4/Cyclin D1 kinase assay, phosphorylation of GST-Rb; details: for Kinase Inhibition Cyclin D1/CDK4 % Inhibition / Kinase Inhibition Cyclin D1/CDK4 IC30: GST-pRb substrate, [ATP] = 100 μM
# T1 construct: made in house; host or cells: CDK4: Sf9 insect cells (baculovirus)
# Description: (§1) The phosphorylation reaction mixture (total volume 40 μl) consisted of 50 mM HEPES pH 7.4, 20 mM MgCl2, 5 mM EGTA, 2 mM DTT, 20 mM β-glycerophosphate, 2 mM NaF, 1 mM Na3VO4, Protease Inhibitors Cocktail (Sigma, see above), BSA 0.5 mg/ml, 1 μg purified enzyme complex, 10 μl of GST-Rb-Sepharose beads, 100 μM ATP, 0.2 μCi ^32P-ATP. The reaction was carried out for 30 min at 30° C. at constant shaking. At the end of this period 100 μl of 50 mM HEPES, pH 7.4 and 1 mM ATP were added to each well and the total volume was transferred onto GFC filtered plate. The plate was washed 5 times with 200 μl of 50 mM HEPES, pH 7.4 and 1 mM ATP. To each well were added 50 μl scintillant liquid and the radioactivity of the samples was measured on Scintilation counter (Topcount, HP). The IC50 values of different peptides were calculated using GraFit software.
# Peptides were synthesized as described above. Cyclin D1 was expressed in E coli BL21(DE3) using PET expression vector and purified from the inclusion bodies. After refolding Cyclin D1 was cross-linked on SulfoLink agarose support (PIERCE). CDK4-6×His was expressed in Sf9 insect cells infected with the appropriate baculovirus construct and purified by metal-affinity chromatography (Quiagen). […] CDK4/Cyclin D1 phosphorilation of Rb was determined by incorporation of radio-labeled phosphate in GST-Rb in 96-well format kinase assay. […] The reaction was carried out for 30 min at 30 C at constant shaking. The GST-Rb-Sepharose beads were washed with 50 mM HEPES and 1 mM ATP and the radioactivity was measured on Scintillation counter (Topcount, HP)
# [2] = biological target: T2, CDK2/Cyclin E (Homo sapiens, UniProt P24864); experiment: CDK2/Cyclin E kinase assay, phosphorylation of GST-Rb; details: for Kinase Inhibition Cyclin E/CDK2 % Inhibition / Kinase Inhibition Cyclin E/CDK2 IC30: GST-pRb substrate, [ATP] = 100 μM
# T2 construct: 6xHis; made in house; host or cells: Sf9 insect cells (baculovirus co-expression)
# Description: as §1
# [3] = biological target: CDK2/cyclin A (Homo sapiens, UniProt P20248); experiment: CDK2/cyclin A kinase assay, substrate pRb(773-928); details: for Relative activity Kinase Inhibition: pRb substrate, [ATP] = 100 μM
# From the text: Reactions were stopped on ice, followed by filtration through p81 filterplates (Whatman Polyfiltronics, Kent, UK).
# [4] = multiple substitutions (Example 22), relative to SEQ ID No. 36 = 1, CDK2/cyclin A kinase assay
# [5] = relative to H-His-Ala-Lys-Arg-Arg-Leu-Ile-Phe-NH2 (SEQ ID No. 36) = 1, CDK2/cyclin A kinase assay
# [6] = Arg156 substitutions, relative to H-His-Ala-Lys-Arg-Arg-Leu-Ile-Phe-NH2 (=1)
# T1 sequence (P24385 whole entry): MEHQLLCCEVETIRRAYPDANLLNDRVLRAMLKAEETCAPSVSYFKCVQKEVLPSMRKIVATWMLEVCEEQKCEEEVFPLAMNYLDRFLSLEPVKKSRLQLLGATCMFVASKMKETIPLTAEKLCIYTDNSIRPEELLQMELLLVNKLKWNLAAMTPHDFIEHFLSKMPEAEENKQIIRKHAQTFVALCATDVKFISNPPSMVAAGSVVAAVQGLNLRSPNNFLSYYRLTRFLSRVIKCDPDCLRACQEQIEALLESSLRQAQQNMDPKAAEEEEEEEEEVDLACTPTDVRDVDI
# T1 sequence (P11802 whole entry partner): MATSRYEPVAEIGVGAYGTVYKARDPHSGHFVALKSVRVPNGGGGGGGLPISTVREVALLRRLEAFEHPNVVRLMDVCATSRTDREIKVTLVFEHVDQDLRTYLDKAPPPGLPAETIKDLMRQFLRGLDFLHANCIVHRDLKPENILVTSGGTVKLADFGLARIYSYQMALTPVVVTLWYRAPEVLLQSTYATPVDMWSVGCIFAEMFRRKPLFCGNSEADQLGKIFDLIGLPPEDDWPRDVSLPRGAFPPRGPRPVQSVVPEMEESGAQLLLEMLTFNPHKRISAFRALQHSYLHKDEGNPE
Kinase Inhibition Cyclin D1/CDK4 % Inhibition [1],Kinase Inhibition Cyclin E/CDK2 % Inhibition [2],Substance,further results
70%,80%,YHSKRRLIFS,Kinase Inhibition Cyclin D1/CDK4 IC30 [1]: 20 ± 1 µM; Kinase Inhibition Cyclin E/CDK2 IC30 [2]: 7.3 ± 0.8 µM
20%,45%,FYHSKRRLI (H-FYHSKRRLI-NH2),
10%,45%,DFYHSK,Kinase Inhibition Cyclin E/CDK2 IC30 [2]: 200 µM
30%,35%,TSMTDFYHSKRR (H-TSMTDFYHSKRR-NH2),
20%,45%,FYHSKRR,Kinase Inhibition Cyclin E/CDK2 IC30 [2]: >200 µM
10%,30%,YHSKRRL,Kinase Inhibition Cyclin E/CDK2 IC30 [2]: >200 µM
30%,25%,DFYHSKARLIFS (H-DFYHSKARLIFS-NH2),
30%,30%,DFYHSKRRAIFS (H-DFYHSKRRAIFS-NH2),
80%,90%,HSKRRLIFSKRK,Kinase Inhibition Cyclin D1/CDK4 IC30 [1]: 34 ± 6 µM
72%,85%,TDFYHSKRRLIF,Kinase Inhibition Cyclin D1/CDK4 IC30 [1]: 15 ± 3 µM
61%,80%,DFYHSKRRLAFS,Kinase Inhibition Cyclin D1/CDK4 IC30 [1]: 53 ± 20 µM; Kinase Inhibition Cyclin E/CDK2 IC30 [2]: 14 ± 3 µM
60%,80%,YHSKRRLIFSKR,Kinase Inhibition Cyclin D1/CDK4 IC30 [1]: 45 ± 10 µM
20%,48%,FYHSKRRL,Kinase Inhibition Cyclin E/CDK2 IC30 [2]: >200 µM
70%,80%,FYHSKRRLIF,Kinase Inhibition Cyclin D1/CDK4 IC30 [1]: 19 ± 3 µM
70%,70%,FYHSKRRLIFSK,Kinase Inhibition Cyclin D1/CDK4 IC30 [1]: 41 ± 10 µM

# Continued, substance first:
Substance,Kinase Inhibition Cyclin D1/CDK4 % Inhibition [1],Kinase Inhibition Cyclin E/CDK2 % Inhibition [2],further results
YHSKRRLIF,70%,80%,Kinase Inhibition Cyclin D1/CDK4 IC30 [1]: 16 ± 1 µM; Kinase Inhibition Cyclin E/CDK2 IC30 [2]: 7 ± 2 µM
KRRLIF,72%,80%,Kinase Inhibition Cyclin D1/CDK4 IC30 [1]: >200 µM
TDFYHSKRRLIF [p21(148-159)],,,"inhibition of CDK4/Cyclin D1 phosphorylation of GST-Rb, in words [1]: active; inhibition of CDK2/Cyclin E phosphorylation of GST-Rb, in words [2]: active"
124 (H-AAKR[Cit]LI[Phe(4-F)]-NH2; SMILES CC[C@H](C)[C@H](NC(=O)[C@H](CC(C)C)NC(=O)[C@H](CCCNC(N)=O)NC(=O)[C@H](CCCNC(=N)N)NC(=O)[C@H](CCCCN)NC(=O)[C@H](C)NC(=O)[C@H](C)N)C(=O)N[C@@H](Cc1ccc(F)cc1)C(N)=O) [compound 124],,,"Relative activity Kinase Inhibition [3, 4]: 10"
114 (H-HAKRRLI[Psa]-OH) [compound 114],,,"Relative activity Kinase Inhibition [3, 5]: 22"
DFYHSKRRLIAS (H-DFYHSKRRLIAS-NH2),35%,20%,
117 (H-HSKRRLI[dPsa]-OH) [compound 117],,,"Relative activity Kinase Inhibition [3, 5]: <0.1"
116 (H-HSKRRLI[Psa]-OH) [compound 116],,,"Relative activity Kinase Inhibition [3, 5]: <0.1"
SKRRLIFSKRKP,40%,70%,Kinase Inhibition Cyclin E/CDK2 IC30 [2]: 46 ± 33 µM
DFYHSKRRLI (H-DFYHSKRRLI-NH2),20%,35%,
DFYHSKR,,50%,Kinase Inhibition Cyclin E/CDK2 IC30 [2]: 200 µM
H-His-Ala-Lys-Arg-Arg-Leu-Ile-[L-Psa]-OH (H-HAKRRLI[Psa]-OH),,,"inhibition of CDK2/cyclin A (pRb phosphorylation), in words ([3]; b370: CDK2/cyclin A inhibition and/or cyclin A binding): particularly potent"
HSKRRL,,45%,Kinase Inhibition Cyclin E/CDK2 IC30 [2]: >200 µM
126 (H-AA[Abu]RSLI[Phe(4-F)]-NH2; SMILES CC[C@H](NC(=O)[C@H](C)NC(=O)[C@H](C)N)C(=O)N[C@@H](CCCNC(=N)N)C(=O)N[C@@H](CO)C(=O)N[C@@H](CC(C)C)C(=O)N[C@H](C(=O)N[C@@H](Cc1ccc(F)cc1)C(N)=O)[C@@H](C)CC) [compound 126],,,"Relative activity Kinase Inhibition [3, 4]: 14"
125 (H-AAKRRLA[Phe(4-F)]-NH2; SMILES CC(C)C[C@H](NC(=O)[C@H](CCCNC(=N)N)NC(=O)[C@H](CCCNC(=N)N)NC(=O)[C@H](CCCCN)NC(=O)[C@H](C)NC(=O)[C@H](C)N)C(=O)N[C@@H](C)C(=O)N[C@@H](Cc1ccc(F)cc1)C(N)=O) [compound 125],,,"Relative activity Kinase Inhibition [3, 4]: 20"
115 (H-HAKRRLI[dPsa]-OH) [compound 115],,,"Relative activity Kinase Inhibition [3, 5]: <0.1"
H-His-Ala-Lys-Arg-Sar-Leu-Ile Phe-NH2,,,"Relative activity Kinase Inhibition [3, 6]: <0.1"
122 (H-AA[Abu]RRLI[Phe(4-F)]-NH2; SMILES CC[C@H](NC(=O)[C@H](C)NC(=O)[C@H](C)N)C(=O)N[C@@H](CCCNC(=N)N)C(=O)N[C@@H](CCCNC(=N)N)C(=O)N[C@@H](CC(C)C)C(=O)N[C@H](C(=O)N[C@@H](Cc1ccc(F)cc1)C(N)=O)[C@@H](C)CC) [compound 122],,,"Relative activity Kinase Inhibition [3, 4]: 60"
123 (H-AAKRRLI[Phe(4-F)]-NH2; SMILES CC[C@H](C)[C@H](NC(=O)[C@H](CC(C)C)NC(=O)[C@H](CCCNC(=N)N)NC(=O)[C@H](CCCNC(=N)N)NC(=O)[C@H](CCCCN)NC(=O)[C@H](C)NC(=O)[C@H](C)N)C(=O)N[C@@H](Cc1ccc(F)cc1)C(N)=O) [compound 123],,,"Relative activity Kinase Inhibition [3, 4]: 80"
H-His-Ala-Lys-Arg-Aib-Leu-Ile Phe-NH2,,,"Relative activity Kinase Inhibition [3, 6]: <0.1"
127 (H-AAKQRLI[Phe(4-F)]-NH2; SMILES CC[C@H](C)[C@H](NC(=O)[C@H](CC(C)C)NC(=O)[C@H](CCCNC(=N)N)NC(=O)[C@H](CCC(N)=O)NC(=O)[C@H](CCCCN)NC(=O)[C@H](C)NC(=O)[C@H](C)N)C(=O)N[C@@H](Cc1ccc(F)cc1)C(N)=O) [compound 127],,,"Relative activity Kinase Inhibition [3, 4]: 4"
